Source: paper PMC9822400, “The Lipophilic Purine Nucleoside—Tdp1 Inhibitor—Enhances DNA Damage Induced by Topotecan In Vitro and Potentiates the Antitumor Effect of Topotecan In Vivo” (Molecules, 2022)

Columns and labels:
[1] = molecular target: T1, purified recombinant human Tdp1 (Homo sapiens, UniProt Q9NUW8); assay: Real-time detection of Tdp1 activity (removal of BHQ1 from a 5′-FAM 16-nt oligonucleotide, fluorescence); assay type: biochemical; settings: 1.5 nM Tdp1, 50 nM oligonucleotide, 25 °C, three independent experiments
T1 construct: made in house
Procedure: In this work, four natural nucleosides (1-4) and […] aromatic lipophilic derivatives of purine nucleosides (5a-f, 6a-d) were tested for Tdp1 activity. The used test system was based on the enzyme’s ability to remove Black Hole Quencher 1 (BHQ1) from the 3′ end of a 5′ FAM 16-nt oligonucleotide. As a result, an increase in FAM fluorescence was detected and the obtained kinetic curves were used to calculate the IC50 parameter (the concentration of the inhibitor at which the enzyme activity is reduced by half). We have found potent Tdp1 inhibitors with IC50 in the range from 0.3 to 7 μM (Table 1).
Purified human recombinant Tdp1 was prepared as described earlier. Real-time detection of Tdp1 activity was reported in our previous work. The approach consists of a fluorescence intensity measurement of the reaction of quencher removal from the fluorophore-quencher coupled DNA oligonucleotide catalyzed by Tdp1 in the presence of the inhibitor (the control samples contained 1% DMSO). The biosensor was single-stranded oligonucleotide (5′-[FAM] AAC GTC AGGGTC TTC C [BHQ]-3′) containing fluorophore at the 5′ end (5,6-FAM) and a Black Hole Quencher 1 (BHQ) at the 3′ end, and was synthesized in the Laboratory of nucleic acid chemistry at the Institute of Chemical Biology and Fundamental Medicine SB RAS, Novosibirsk, Russia. The reactions were incubated at a constant temperature 25 °C in a POLARstar OPTIMA fluorimeter, BMG LABTECH, GmbH, to measure fluorescence every 55 s (Ex485/Em520 nm) during the linear phase (here, the data are from 0 to 8 min). […] The IC50 values were determined using a six-point concentration response curve in three independent experiments and calculated using MARS Data Analysis 2.0 (BMG LABTECH).

human recombinant PARP2 = molecular target: T2, human recombinant PARP2 (Homo sapiens, UniProt Q9UGN5); assay: PARP2 activity by inclusion of α-[32P]-NAD+ in poly(ADP-ribose); assay type: biochemical; settings: in the presence of 1 mM compound; read-out: Residual activity of PARP2
T2 construct: made in house
Procedure: Since it has previously been shown that nucleoside derivatives can inhibit enzymes of the PARP family, we also checked whether the studied compounds were able to inhibit the enzymes PARP1 and PARP2. […] Thus, when using our compounds, one cannot expect side effects from PARP1/2.
Purified human recombinant PARP1/2 [65] and [^32P] NAD^+ [27] were prepared as described earlier. The activity of PARP1/2 was evaluated by the rate of incorporation of the radioactive label into the acid-insoluble reaction product—PAR as described previously.

[2] = Cell culture cytotoxicity assay (EZ4U colorimetric test); assay type: cell-based; settings: human, HeLa cells
Text: Tdp1 inhibitors are intended to be used in therapeutic cocktails to sensitize tumors to the action of anticancer Top1 poisons. […] To assess the toxicity of the compounds, their effect on the survival of the HeLa cell line (human cervical cancer) was studied using the colorimetric test of metabolic activity of cells EZ4U, which reflects the survival of cells in the presence of the studied compounds. The EZ4U assay is based on the ability of living cells to reduce the colorless tetrazolium salt XTT [sodium 3,3′-{1-(phenylamino)-carbonyl-3,4-tetrazolium) -bis(4-methoxy-6-nitro)-benzene sulfonic acid hydrate] to an orange water-soluble formazan product. This method was used to investigate the intrinsic cytotoxicity of promising inhibitors discovered in the course of this work, as well as the toxicity of their combination with Tpc.
Cytotoxicity of the compounds was examined on human cell lines HeLa using an EZ4U colorimetric test (Biomedica, Vienna, Austria). The HeLa cell line was obtained from the Russian Cell Culture Collection (RCCC) Institute of Cytology RAS, St. Petersburg, Russia. The cells were grown in DMEM/F12 medium (Gibco, Thermo Fisher Scientific, Waltham, MA, USA), with 1x GlutaMAX (Gibco, Thermo Fisher Scientific, Waltham, MA, USA), 50 IU/mL penicillin, 50 μg/mL streptomycin (MP Biomedicals), and in the presence of 10% fetal bovine serum (Biolot, Saint-Petersburg, Russia) in a 5% CO2 atmosphere. Since lipophilic nucleosides are soluble in DMSO, cells were grown in the presence of 1% DMSO in the control wells. After the formation of a 30–50% monolayer, the tested compounds were added to the medium, and the cell culture was monitored for 3 days. The values were normalized to their own control in each case. At least three independent experiments were carried out. The 50% cytotoxic concentration (CC50) was defined as the compound concentration that reduced the cell viability by 50% when compared to the untreated controls. The CC50 value was determined using OriginPro 8.6.0 software (OriginLab, Northampton, MA, USA). The measurements were carried out in three independent experiments.

T1 sequence (Q9NUW8 whole entry): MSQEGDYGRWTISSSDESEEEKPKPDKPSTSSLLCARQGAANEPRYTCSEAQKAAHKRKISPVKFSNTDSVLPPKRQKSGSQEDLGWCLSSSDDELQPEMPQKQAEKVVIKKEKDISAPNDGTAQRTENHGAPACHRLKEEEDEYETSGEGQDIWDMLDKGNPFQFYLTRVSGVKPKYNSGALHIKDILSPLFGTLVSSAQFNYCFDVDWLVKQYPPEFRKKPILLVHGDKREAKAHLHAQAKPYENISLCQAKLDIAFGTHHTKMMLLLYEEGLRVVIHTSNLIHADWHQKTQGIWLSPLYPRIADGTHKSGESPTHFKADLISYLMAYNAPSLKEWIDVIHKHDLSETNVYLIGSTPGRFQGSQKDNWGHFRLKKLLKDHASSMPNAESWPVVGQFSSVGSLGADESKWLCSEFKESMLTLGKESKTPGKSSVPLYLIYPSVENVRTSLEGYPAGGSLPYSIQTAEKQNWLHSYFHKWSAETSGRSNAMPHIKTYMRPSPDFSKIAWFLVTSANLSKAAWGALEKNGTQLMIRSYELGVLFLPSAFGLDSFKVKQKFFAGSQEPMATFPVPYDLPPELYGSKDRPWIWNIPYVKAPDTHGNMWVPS
T2 sequence (Q9UGN5 whole entry): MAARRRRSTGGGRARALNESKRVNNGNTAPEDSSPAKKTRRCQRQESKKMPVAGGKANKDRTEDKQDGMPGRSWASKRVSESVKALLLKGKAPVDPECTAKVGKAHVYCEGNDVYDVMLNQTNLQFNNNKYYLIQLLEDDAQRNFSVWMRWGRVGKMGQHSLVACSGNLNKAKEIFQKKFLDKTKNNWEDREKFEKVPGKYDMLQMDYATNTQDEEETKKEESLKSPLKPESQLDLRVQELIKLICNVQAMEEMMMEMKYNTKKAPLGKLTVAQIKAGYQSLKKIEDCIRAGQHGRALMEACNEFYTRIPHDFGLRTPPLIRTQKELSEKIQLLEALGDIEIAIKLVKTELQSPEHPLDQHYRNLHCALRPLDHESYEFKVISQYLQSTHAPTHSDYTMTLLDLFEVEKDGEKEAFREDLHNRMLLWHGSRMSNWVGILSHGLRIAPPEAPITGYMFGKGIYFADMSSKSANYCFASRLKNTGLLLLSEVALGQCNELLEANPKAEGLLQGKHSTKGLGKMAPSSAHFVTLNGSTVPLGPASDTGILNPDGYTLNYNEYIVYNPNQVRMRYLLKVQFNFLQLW

O[C@@H]1[C@H](O)[C@@H](COC(c2ccccc2)(c2ccccc2)c2ccccc2)O[C@H]1n1cnc2c(NC(c3ccccc3)(c3ccccc3)c3ccccc3)ncnc21 [compound 5f]
IC50 [1]: 0.3 ± 0.06 µM
remaining activity at 1000 µM (human recombinant PARP2): 113 ± 18%
CC50 at 3 days [2]: > 100 µM

O=C(OC[C@H]1O[C@@H](n2cnc3c(Cl)nc(F)nc32)[C@H](OC(=O)c2ccccc2)[C@@H]1OC(=O)c1ccccc1)c1ccccc1 [compound 6c, 2-Fluoro-6-chloro-9-(2,3,5-tri-O-benzoyl-β-D-ribofuranosyl)purine]
IC50 [1]: 1 ± 0.2 µM
remaining activity at 1000 µM (human recombinant PARP2): 80 ± 20%
CC50 at 3 days [2]: 35 ± 20 µM

O=C(OC[C@H]1O[C@@H](n2cnc3c(Cl)nc(Cl)nc32)[C@H](OC(=O)c2ccccc2)[C@@H]1OC(=O)c1ccccc1)c1ccccc1 [compound 6d, 2,6-dichloro-9-(2,3,5-tri-O-benzoyl-β-D-ribofuranosyl)purine]
IC50 [1]: 0.82 ± 0.02 µM
remaining activity at 1000 µM (human recombinant PARP2): 86 ± 9%
CC50 at 3 days [2]: 33 ± 15 µM
